{
  "source": "ChEMBL document CHEMBL1155012",
  "about": "“Modulation of peripheral serotonin levels by novel tryptophan hydroxylase inhibitors for the potential treatment of functional gastrointestinal disorders” (J Med Chem, 2008)",
  "data": [
    {"target": "Tryptophan 5-hydroxylase 1 (Homo sapiens) (UniProt P17752)", "sequence (P17752 whole entry, looked up)": "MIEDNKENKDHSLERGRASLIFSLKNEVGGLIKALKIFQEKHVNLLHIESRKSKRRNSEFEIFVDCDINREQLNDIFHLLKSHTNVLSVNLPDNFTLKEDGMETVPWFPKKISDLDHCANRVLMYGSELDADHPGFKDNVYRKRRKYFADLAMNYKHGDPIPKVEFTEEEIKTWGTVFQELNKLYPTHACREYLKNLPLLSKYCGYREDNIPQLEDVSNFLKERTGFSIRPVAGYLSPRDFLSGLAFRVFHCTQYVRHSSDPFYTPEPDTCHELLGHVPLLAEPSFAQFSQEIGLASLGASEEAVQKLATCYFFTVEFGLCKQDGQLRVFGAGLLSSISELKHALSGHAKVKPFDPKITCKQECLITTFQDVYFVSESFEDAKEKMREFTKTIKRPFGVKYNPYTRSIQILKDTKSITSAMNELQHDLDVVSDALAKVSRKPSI", "assay": "Inhibition of TPH1 in human BON cells assessed as inhibition of serotonin biosynthesis", "units": {"EC50": "nM"}, "values": [
      {"smiles": "Nc1nc(OC(c2sccc2-c2ccco2)C(F)(F)F)cc(-c2ccc(C[C@H](N)C(=O)O)cc2)n1", "note": "(some centres undefined)", "EC50": 1190},
      {"smiles": "Nc1nc(OC(c2ccccc2-c2ccco2)C(F)(F)F)cc(-c2ccc(C[C@H](N)C(=O)O)cc2)n1", "note": "(some centres undefined)", "EC50": 800},
      {"smiles": "Nc1nc(OC(c2ccccc2-n2ccc(C(F)(F)F)n2)C(F)(F)F)cc(-c2ccc(C[C@H](N)C(=O)O)cc2)n1", "note": "(some centres undefined)", "EC50": 750},
      {"smiles": "Cc1cccc(-c2ccccc2C(Oc2cc(-c3ccc(C[C@H](N)C(=O)O)cc3)nc(N)n2)C(F)(F)F)c1", "note": "(some centres undefined)", "EC50": 560}
    ]}
  ]
}
